Measured values as given in ChEMBL document CHEMBL5113427, “Bioevaluation of a dual PI3K/HDAC inhibitor for the treatment of diffuse large B-cell lymphoma” (Bioorg Med Chem Lett, 2022).
One block for each molecule: values may come before it. Active and inactive are the calls of the source. The rule behind the calls is not given here.

Columns and labels:
DOHH-2 [1] = assay: Induction of cell cycle arrest in human DOHH-2 cells assessed as accumulation at G2/M phase measured by flow cytometry analysis; format: functional, cell-based
[2] = biological target: T1, Histone deacetylase (Homo sapiens) (UniProt Q13547+O15379+Q9UBN7+Q92769+Q9UQL6+Q8WUI4+Q9BY41+Q96DB2+P56524+Q9UKV0+Q969S8); assay: Inhibition of HDAC in human DOHH-2 cells assessed as effect on pS6 levels at 10 uM measured by Western blot analysis; format: cell-based
[3] = biological target: T1, Histone deacetylase (Homo sapiens); assay: Inhibition of HDAC in human OCILY3 cells assessed as effect on pS6 levels at 10 uM measured by Western blot analysis; format: cell-based
[4] = biological target: T1, Histone deacetylase (Homo sapiens); assay: Inhibition of HDAC in human DOHH-2 cells assessed as Down-regulation of STAT3 phosphorylation at Y705 residue at 10 uM measured by Western blot analysis; format: cell-based
DOHH-2 [5] = assay: Induction of cell cycle arrest in human DOHH-2 cells assessed as accumulation at S phase measured by flow cytometry analysis; format: functional, cell-based
[6] = biological target: T1, Histone deacetylase (Homo sapiens); assay: Inhibition of HDAC in human OCILY3 cells assessed as Down-regulation of STAT3 phosphorylation at Y705 residue at 10 uM measured by Western blot analysis; format: cell-based
DOHH-2 [7] = assay: Induction of apoptosis in human DOHH-2 cells measured by flow cytometry analysis; format: functional, cell-based
OCI-Ly3 [8] = assay: Induction of apoptosis in human OCILY3 cells measured by flow cytometry analysis; format: functional, cell-based
[9] = biological target: T1, Histone deacetylase (Homo sapiens); assay: Inhibition of HDAC in human OCILY3 cells assessed as increase in Ac-H3 levels at 0.01 to 1 uM measured by Western blot analysis; format: cell-based; conditions: dose 0.01-1 µM
[10] = Antiproliferative activity against human HBL1 cells measured after 4 days by Cell Titer Glo Luminescent Cell Viability Assay; format: functional, cell-based; conditions: HBL1, 96 h
Pfeiffer = assay: Antiproliferative activity against human Pfeiffer cells measured after 4 days by Cell Titer Glo Luminescent Cell Viability Assay; format: functional, cell-based; conditions: 96 h
WSU-NHL = assay: Antiproliferative activity against human WSU-NHL cells measured after 4 days by Cell Titer Glo Luminescent Cell Viability Assay; format: functional, cell-based; conditions: 96 h
OCI-Ly3 [11] = assay: Antiproliferative activity against human OCILY3 cells measured after 4 days by Cell Titer Glo Luminescent Cell Viability Assay; format: functional, cell-based; conditions: OCI-Ly3, 96 h
OCI-Ly3 [12] = assay: Induction of apoptosis in human OCILY3 cells at 0.01 to 1 uM measured by flow cytometry analysis; format: functional, cell-based; conditions: dose 0.01-1 µM, DDE = dose-dependent effect
[13] = biological target: T1, Histone deacetylase (Homo sapiens); assay: Inhibition of HDAC in human DOHH-2 cells assessed as down-regulation of STAT3 phosphorylation at Y705 residue at 0.5 to 12 hrs measured by Western blot analysis; format: cell-based; conditions: time 0.5-12 hrs
KARPAS-422 = assay: Antiproliferative activity against human KARPAS-422 cells measured after 4 days by Cell Titer Glo Luminescent Cell Viability Assay; format: functional, cell-based; conditions: KARPAS-422, 96 h
[14] = biological target: T1, Histone deacetylase (Homo sapiens); assay: Inhibition of HDAC in human DOHH-2 cells assessed as effect on pS6 levels at 0.01 to 1 uM measured by Western blot analysis; format: cell-based; conditions: dose 0.01-1 µM
[15] = biological target: T1, Histone deacetylase (Homo sapiens); assay: Inhibition of HDAC in human DOHH-2 cells assessed as increase in Ac-p53 levels at 0.01 to 1 uM measured by Western blot analysis; format: cell-based; conditions: dose 0.01-1 µM
SU-DHL10 = assay: Antiproliferative activity against human SU-DHL-10 cells measured after 4 days by Cell Titer Glo Luminescent Cell Viability Assay; format: functional, cell-based; conditions: SU-DHL10, 96 h
[16] = biological target: T1, Histone deacetylase (Homo sapiens); assay: Inhibition of HDAC in human OCILY3 cells assessed as increase in Ac-p53 levels at 0.01 to 1 uM measured by Western blot analysis; format: cell-based; conditions: dose 0.01-1 µM
[17] = biological target: Phosphatidylinositol 4,5-bisphosphate 3-kinase catalytic subunit alpha isoform (Homo sapiens) (UniProt P42336); assay: Inhibition of PI3Kalpha in human DOHH-2 cells assessed as decrease in AKT phosphorylation at 0.01 to 1 uM measured by western blot analysis; format: cell-based; conditions: dose 0.01-1 µM
Phosphatidylinositol 4,5-bisphosphate 3-kinase catalytic subunit alpha isoform (Homo sapiens), sequence (P42336 whole entry, canonical isoform): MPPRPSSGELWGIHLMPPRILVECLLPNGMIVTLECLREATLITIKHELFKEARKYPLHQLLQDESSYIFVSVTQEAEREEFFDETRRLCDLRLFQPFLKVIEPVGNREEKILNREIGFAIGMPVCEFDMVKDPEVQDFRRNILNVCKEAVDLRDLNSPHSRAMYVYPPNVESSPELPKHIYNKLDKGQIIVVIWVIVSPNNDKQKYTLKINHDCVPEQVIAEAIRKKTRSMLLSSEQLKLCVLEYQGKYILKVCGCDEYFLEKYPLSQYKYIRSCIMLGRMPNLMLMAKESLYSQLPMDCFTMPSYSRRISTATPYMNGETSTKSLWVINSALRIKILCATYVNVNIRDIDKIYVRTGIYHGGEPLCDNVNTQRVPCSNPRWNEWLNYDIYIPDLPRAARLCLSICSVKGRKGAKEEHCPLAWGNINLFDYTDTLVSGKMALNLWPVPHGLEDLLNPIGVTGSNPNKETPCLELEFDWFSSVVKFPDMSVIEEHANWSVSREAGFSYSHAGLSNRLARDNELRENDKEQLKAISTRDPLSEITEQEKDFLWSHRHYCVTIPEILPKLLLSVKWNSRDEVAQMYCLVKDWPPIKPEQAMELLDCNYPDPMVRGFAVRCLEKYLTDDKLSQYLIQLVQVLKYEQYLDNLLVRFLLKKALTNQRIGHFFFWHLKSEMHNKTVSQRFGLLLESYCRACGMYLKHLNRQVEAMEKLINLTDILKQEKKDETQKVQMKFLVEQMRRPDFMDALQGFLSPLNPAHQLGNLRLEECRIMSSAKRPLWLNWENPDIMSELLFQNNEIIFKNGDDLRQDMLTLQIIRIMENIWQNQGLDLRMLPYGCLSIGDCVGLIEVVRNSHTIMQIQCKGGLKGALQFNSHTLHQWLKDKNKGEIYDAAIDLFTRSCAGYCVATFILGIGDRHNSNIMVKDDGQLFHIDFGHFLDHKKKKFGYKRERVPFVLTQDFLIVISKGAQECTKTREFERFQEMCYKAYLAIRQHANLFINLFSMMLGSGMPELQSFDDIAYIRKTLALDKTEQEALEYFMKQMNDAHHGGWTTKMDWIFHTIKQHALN

OCI-Ly3 [18] = assay: Induction of apoptosis in human OCILY3 cells assessed as upregulation of cleaved-PARP at 0.01 to 1 uM measured by Western blot analysis; format: functional, cell-based; conditions: dose 0.01-1 µM
[19] = biological target: Phosphatidylinositol 4,5-bisphosphate 3-kinase catalytic subunit alpha isoform (Homo sapiens) (UniProt P42336); assay: Inhibition of PI3Kalpha in human OCILY3 cells assessed as decrease in AKT phosphorylation at 0.5 to 1 hrs measured by western blot analysis; format: cell-based; conditions: time 0.5-1 hrs
[20] = biological target: T1, Histone deacetylase (Homo sapiens); assay: Inhibition of HDAC in human OCILY3 cells assessed as […] level at 0.5 to 12 hrs measured by Western blot analysis; format: cell-based; conditions: time 0.5-12 hrs
[21] = biological target: T1, Histone deacetylase (Homo sapiens); assay: Inhibition of HDAC in human OCILY3 cells assessed as decrease in p-S6 level at 0.5 to 12 hrs measured by Western blot analysis; format: cell-based; conditions: time 0.5-12 hrs
[22] = biological target: T1, Histone deacetylase (Homo sapiens); assay: Inhibition of HDAC in human DOHH-2 cells assessed as decrease in p-S6 level at 0.5 to 12 hrs measured by Western blot analysis; format: cell-based; conditions: time 0.5-12 hrs
DOHH-2 [23] = assay: Induction of apoptosis in human DOHH-2 cells assessed as upregulation of cleaved-PARP at 0.01 to 1 uM measured by Western blot analysis; format: functional, cell-based; conditions: dose 0.01-1 µM
SUD4 [24] = assay: Antiproliferative activity against human SU-DHL-4 cells measured after 4 days by Cell Titer Glo Luminescent Cell Viability Assay; format: functional, cell-based; conditions: SU-DHL-4, 96 h
OCI-LY19 = assay: Antiproliferative activity against human OCILY19 cells measured after 4 days by Cell Titer Glo Luminescent Cell Viability Assay; format: functional, cell-based; conditions: OCI-LY19, 96 h
DOHH-2 [25] = assay: Induction of cell cycle arrest in human DOHH-2 cells assessed as accumulation at S phase at 0.01 to 1 uM measured by flow cytometry analysis; format: functional, cell-based; conditions: dose 0.01-1 µM, DDE = dose-dependent effect
DOHH-2 [26] = assay: Antiproliferative activity against human DOHH-2 cells measured after 4 days by Cell Titer Glo Luminescent Cell Viability Assay; format: functional, cell-based; conditions: DOHH-2, 96 h
SU-DHL-6 = assay: Antiproliferative activity against human SU-DHL-6 cells measured after 4 days by Cell Titer Glo Luminescent Cell Viability Assay; format: functional, cell-based; conditions: SU-DHL-6, 96 h
[27] = biological target: T1, Histone deacetylase (Homo sapiens); assay: Inhibition of HDAC in human OCILY3 cells assessed as down-regulation of STAT3 phosphorylation at Y705 residue at 0.5 to 12 hrs measured by Western blot analysis; format: cell-based; conditions: time 0.5-12 hrs
SU-DHL-8 = assay: Antiproliferative activity against human SU-DHL-8 cells measured after 4 days by Cell Titer Glo Luminescent Cell Viability Assay; format: functional, cell-based; conditions: SU-DHL-8, 96 h
OCI-Ly7 = assay: Antiproliferative activity against human OCILY7 cells measured after 4 days by Cell Titer Glo Luminescent Cell Viability Assay; format: functional, cell-based; conditions: OCI-Ly7, 96 h
WSUDLCL2 = assay: Antiproliferative activity against human WSUDLCL2 cells measured after 4 days by Cell Titer Glo Luminescent Cell Viability Assay; format: functional, cell-based; conditions: WSUDLCL2, 96 h
[28] = biological target: Phosphatidylinositol 4,5-bisphosphate 3-kinase catalytic subunit alpha isoform (Homo sapiens) (UniProt P42336); assay: Inhibition of PI3Kalpha in human OCILY3 cells assessed as decrease in AKT phosphorylation at Ser473 residue at 0.01 to 1 uM measured by western blot analysis; format: cell-based; conditions: dose 0.01-1 µM
DOHH-2 [29] = assay: Induction of apoptosis in human DOHH-2 cells assessed as upregulation of cleaved-caspase3 at 0.01 to 1 uM measured by Western blot analysis; format: functional, cell-based; conditions: dose 0.01-1 µM
DOHH-2 [30] = assay: Induction of apoptosis in human DOHH-2 cells at 0.01 to 1 uM measured by flow cytometry analysis; format: functional, cell-based; conditions: dose 0.01-1 µM, DDE = dose-dependent effect
U2932 = assay: Antiproliferative activity against human U2932 cells measured after 4 days by Cell Titer Glo Luminescent Cell Viability Assay; format: functional, cell-based; conditions: U2932, 96 h
[31] = biological target: Phosphatidylinositol 4,5-bisphosphate 3-kinase catalytic subunit alpha isoform (Homo sapiens) (UniProt P42336); assay: Inhibition of PI3Kalpha in human OCILY3 cells assessed as decrease in AKT phosphorylation at Thr308 residue at 0.01 to 1 uM measured by western blot analysis; format: cell-based; conditions: dose 0.01-1 µM
SU-DHL-5 = assay: Antiproliferative activity against human SU-DHL-5 cells measured after 4 days by Cell Titer Glo Luminescent Cell Viability Assay; format: functional, cell-based; conditions: SU-DHL-5, 96 h
OCI-Ly3 [32] = assay: Induction of apoptosis in human OCILY3 cells assessed as upregulation of cleaved-caspase3 at 0.01 to 1 uM measured by Western blot analysis; format: functional, cell-based; conditions: dose 0.01-1 µM
[33] = biological target: T1, Histone deacetylase (Homo sapiens); assay: Inhibition of HDAC in human DOHH-2 cells assessed as Down-regulation of STAT3 phosphorylation at Y705 residue at 0.01 to 1 uM measured by Western blot analysis; format: cell-based; conditions: dose 0.01-1 µM
Toledo = assay: Antiproliferative activity against human Toledo cells measured after 4 days by Cell Titer Glo Luminescent Cell Viability Assay; format: functional, cell-based; conditions: 96 h
[34] = biological target: T1, Histone deacetylase (Homo sapiens); assay: Inhibition of HDAC in human DOHH-2 cells assessed as […] level at 0.5 to 12 hrs measured by Western blot analysis; format: cell-based; conditions: time 0.5-12 hrs
[35] = biological target: Phosphatidylinositol 4,5-bisphosphate 3-kinase catalytic subunit alpha isoform (Homo sapiens) (UniProt P42336); assay: Inhibition of PI3Kalpha in human DOHH-2 cells assessed as decrease in AKT phosphorylation at 0.5 to 1 hrs measured by western blot analysis; format: cell-based; conditions: time 0.5-1 hrs
[36] = biological target: T1, Histone deacetylase (Homo sapiens); assay: Inhibition of HDAC in human DOHH-2 cells assessed as increase in Ac-H3 levels at 0.01 to 1 uM measured by Western blot analysis; format: cell-based; conditions: dose 0.01-1 µM
[37] = biological target: T1, Histone deacetylase (Homo sapiens); assay: Inhibition of HDAC in human OCILY3 cells assessed as Down-regulation of STAT3 phosphorylation at Y705 residue at 0.01 to 1 uM measured by Western blot analysis; format: cell-based; conditions: dose 0.01-1 µM
SUD4 [38] = assay: Antitumour activity against CM-Dil labeled human SU-DHL-4 cells xenografted in zebrafish embryo assessed as decrease in tumor growth at 3 uM measured by fluorescence based assay; format: functional, cell-based
[39] = biological target: T1, Histone deacetylase (Homo sapiens); assay: Inhibition of HDAC in human OCILY3 cells assessed as effect on pS6 levels at 0.01 to 1 uM measured by Western blot analysis; format: cell-based; conditions: dose 0.01-1 µM
DOHH-2 [40] = assay: Induction of cell cycle arrest in human DOHH-2 cells assessed as accumulation at G2/M phase in presence of pictilisib measured by flow cytometry analysis; format: functional, cell-based

inhibition [2]: Active
inhibition [3]: Active
inhibition [4]: Active
inhibition [6]: Active
SMILES: CS(=O)(=O)N1CCN(Cc2cc3nc(-c4cccc5[nH]ncc45)nc(N4CCOCC4)c3s2)CC1
Activity (DOHH-2 [1]): Active
Activity (DOHH-2 [5]): Active
Activity (DOHH-2 [7]): Active
Activity (OCI-Ly3 [8]): Active

inhibition [9]: Active
IC50 (OCI-Ly3 [11]): 3.6 nM
inhibition [13]: Active
IC50 (KARPAS-422): 21 nM
inhibition [14]: Active
inhibition [15]: Active
IC50 (SU-DHL10): 9.7 nM
inhibition [16]: Active
inhibition [17]: Active
inhibition [19]: Active
inhibition [20]: Active
inhibition [21]: Active
inhibition [22]: Active
IC50 (OCI-LY19): 19.2 nM
IC50 (SU-DHL-6): 6.5 nM
inhibition [27]: Active
IC50 (SU-DHL-8): 6.4 nM
IC50 (OCI-Ly7): 5.6 nM
inhibition [28]: Active
inhibition [31]: Active
IC50 (SU-DHL-5): 3.6 nM
inhibition [33]: Active
inhibition [34]: Active
inhibition [35]: Active
inhibition [36]: Active
inhibition [37]: Active
inhibition [39]: Active
SMILES: COc1ccc(-c2cc(OCCN(C)c3ncc(C(=O)NO)cn3)c3ncnc(C)c3c2)cn1
IC50 [10]: 7.9 nM
IC50 (Pfeiffer): 5.3 nM
IC50 (WSU-NHL): 5.2 nM
Activity (OCI-Ly3 [12]): Dde
Activity (OCI-Ly3 [18]): Active
Activity (DOHH-2 [23]): Active
IC50 (SUD4 [24]): 7.6 nM
Activity (DOHH-2 [25]): Dde
IC50 (DOHH-2 [26]): 7.7 nM
IC50 (WSUDLCL2): 16 nM
Activity (DOHH-2 [29]): Active
Activity (DOHH-2 [30]): Dde
IC50 (U2932): 17.7 nM
Activity (OCI-Ly3 [32]): Active
IC50 (Toledo): 5.6 nM
Activity (SUD4 [38]): Active

SMILES: O=C(CCCCCCC(=O)Nc1ccccc1)NO
Activity (DOHH-2 [40]): Active
Activity (DOHH-2 [1]): Active
Activity (DOHH-2 [5]): Active
Activity (DOHH-2 [7]): Active
Activity (OCI-Ly3 [8]): Active
